This is an account of results in patent US20240139190A1, “NOVEL ANTIPARASITIC COMPOUNDS AND METHODS” (The Board of Regents of The University of Texas System, priority 2019, published 2024).

Read-outs that look alike come from different tables or passages of the source.

For data set [1], the system named is L. amazonensis axenic amastigotes. Kind of data set: alamarBlue viability / concentration-response assay, axenic amastigotes. The following applies: 72 h, axenic amastigotes, read-out: EC50^72 h against L. amazonensis axenic amastigotes. It counts as cell-based, Leishmania amazonensis. As for the experimental part: (§1) Leishmania amazonensis axenic amastigotes (100 μL, 2×10^6 cells/mL) were added to 96-multiwell plates containing 100 μL of amastigote culture medium with an appropriate compound dilution series. 0.1% DMSO (no drug) served as a positive control (100%), and 5 μM amphotericin B served as a negative growth control (0%). Only internal wells were used to minimize edge effects from evaporation. Axenic amastigotes were incubated at 32° C. with a compound/drug for 72 h prior to measurement. Similarly, the cytotoxicity of each compound was determined against RAW 264.7 cells and HepG2 cell lines, following 72 h incubation at 37° C. (promastigotes at 26° C.).
(§2) 10% alamarBlue® (Thermo Fisher Scientific) was used to measure the growth of both parasite and mammalian cells. Conversion from a blue oxidized state to a pink reduced state was assessed visually at 6 hr. The fluorescence signal was measured with a BioTek Synergy H1 plate reader (530 nm excitation, 570 nm emission). For bioluminescence assays using L. amazonensisluc, relative luminescence units (RLU) were measured using Britelite Plus (PerkinElmer, USA). Luminescence produced by this luciferase reaction is proportional to the amount of luciferase-expressing, viable L. amazonensisluc. Following five-minute incubation at room temperature, the luminescence was measured with a BioTek Synergy H1 plate reader.
All experiments were conducted as three technical triplicates on the same plate, with at least three independent biological repeats of each plate performed. For all assays, percent growth was expressed as a proportion of the untreated (positive) control (i.e. 100%) and plotted against drug/compound concentration. The concentration was then log10 transformed and EC50 values were determined using nonlinear regression (sigmoidal dose-response/variable slope equation) in GraphPad Prism v5.0 (GraphPad Software, Inc., San Diego, CA).
To identify antileishmanial compounds, a microplate-based alamarBlue® assay was used to quickly triage the 400 drug-like compounds available in the MMV Pathogen Box collection. […] A three-step process was used to screen the Pathogen Box: 1) identify hits against axenic amastigotes, 2) confirm the inhibitory concentrations of these hits against axenic amastigotes, 3) evaluate hits for potency against intracellular parasites using fluorescence and bioluminescence-based intracellular assays. The MMV Pathogen Box resource was tested at two concentrations (5 μM and 1 μM, 72 h endpoint) on axenic amastigotes.
Hits were defined as compounds that, at a concentration of 1 μM, decreased the relative fluorescence intensity signal to ≤70% of that produced by parasites incubated in vehicle (0.06% DMSO) only (FIG. 9).

The test system of data set [2] is intracellular L. amazonensis amastigotes. Nature of the data set: Intramacrophage bioluminescence assay with luciferase-expressing L. amazonensis. It counts as cell-based, Leishmania amazonensis. The following applies: Leishmania amazonensis, RAW264.7, 72 h, read-out: EC50^72 h against intracellular L. amazonensis amastigotes. The method, then: Intracellular EC50s were estimated with L. amazonensisluc parasites. Briefly, RAW 264.7 cells or BM primary Mϕs were starved overnight, then infected with metacyclic promastigotes at a Multiplicity of Infection (MOI) of 15 and incubated for another 24 h at 37° C. The plates containing infected RAW 264.7 cells/BM primary M4s were washed five times with serum-free DMEM. Serially diluted compounds were added, and plates were incubated at 37° C. for 72 hrs. Bioluminescence signal was measured as described above.
RAW 264.7 cells were used to perform a bioluminescence assay with transgenic luciferase-expressing L. amazonensis (FIG. 1C).

A short description of another data set: Cytotoxicity, alamarBlue. It is filed as cell-based. The following applies: mouse, RAW 264.7 macrophage cells, read-out: CC50^72 h cytotoxicity (macrophage / mammalian cells). The method, then:
as §1
as §2, with “reader. […]” for “reader.”

Data set [3] concerns cellular tubulin of L. amazonensis. Kind of data set: Polymerized vs. unpolymerized tubulin in parasites (differential centrifugation, western blot). As to conditions: 24 h at EC50^72 h, densitometry. It counts as cell-based, Leishmania amazonensis. From the text:
One reason why MMV676477 might affect parasite cell division is that, like paclitaxel, it might affect microtubule polymerization, either directly or indirectly. The degree to which MMV676477 affected microtubules polymerization in cells was examined. […] Centrifugation of these extracts allowed separation of insoluble polymeric (pellet) and soluble dimeric (supernatant) tubulin. […] The intensity of α-tubulin staining was examined by normalizing it to the intensity of a membrane protein (gp46 for promastigotes in FIG. 4D; p8 for amastigotes in FIG. 4E).

In the case of `CCc1c(C)nc(-n2nc(C)cc2NC(=O)c2ccccc2SC)[nH]c1=O` [MMV676477, N-(1-(5-Ethyl-4-methyl-6-oxo-1,6-dihydropyrimidin-2-yl)-3-methyl-1H-pyrazol-5-yl)-2-(methylthio)benzamide], the EC50 stood at 78 nM in data set [1], 79 nM in data set [1] (Leishmania amazonensis) and 510 nM in data set [2]. In addition, in the data set “Cytotoxicity, alamarBlue”, the CC50 at 72 h was determined as 2200 nM. Also, the “proportion of cellular polymeric tubulin” value in data set [3] is “significantly increased the proportion of cellular polymeric tubulin”.
